From ChEMBL document CHEMBL1201862, “PubChem BioAssay data set” (2004)
Active and inactive are the calls of the source.

Tests used:
Cytochrome P450 2D6 = Cytochrome P450 2D6 (Homo sapiens, UniProt P10635);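 note: CYP2D6 member of a cytochrome P450 panel assay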
Cytochrome P450 1A2 = molecular target: T1, Cytochrome P450 1A2 (Homo sapiens, UniProt P05177);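 note: PubChem cytochrome P450 panel assay, CYP1A2 panel member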
T1 sequence (P05177 whole entry): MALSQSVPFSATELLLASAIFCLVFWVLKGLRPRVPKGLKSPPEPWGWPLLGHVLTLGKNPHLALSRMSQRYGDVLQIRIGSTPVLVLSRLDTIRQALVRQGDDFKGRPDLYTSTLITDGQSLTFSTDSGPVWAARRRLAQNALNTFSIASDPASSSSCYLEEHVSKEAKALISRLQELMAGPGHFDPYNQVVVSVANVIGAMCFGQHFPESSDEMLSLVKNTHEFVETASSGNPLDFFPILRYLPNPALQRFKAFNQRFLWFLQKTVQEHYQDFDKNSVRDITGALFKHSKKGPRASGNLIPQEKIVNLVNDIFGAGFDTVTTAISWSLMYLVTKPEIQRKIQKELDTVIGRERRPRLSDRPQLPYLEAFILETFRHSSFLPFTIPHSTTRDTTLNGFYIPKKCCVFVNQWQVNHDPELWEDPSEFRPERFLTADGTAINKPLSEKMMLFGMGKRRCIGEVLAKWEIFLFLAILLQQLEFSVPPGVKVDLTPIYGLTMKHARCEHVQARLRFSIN

Cytochrome P450 3A4 = Cytochrome P450 3A4 (Homo sapiens, UniProt P08684);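 note: CYP3A4 tested as one member of a cytochrome P450 panel screen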
Cytochrome P450 3A4, sequence (P08684 whole entry): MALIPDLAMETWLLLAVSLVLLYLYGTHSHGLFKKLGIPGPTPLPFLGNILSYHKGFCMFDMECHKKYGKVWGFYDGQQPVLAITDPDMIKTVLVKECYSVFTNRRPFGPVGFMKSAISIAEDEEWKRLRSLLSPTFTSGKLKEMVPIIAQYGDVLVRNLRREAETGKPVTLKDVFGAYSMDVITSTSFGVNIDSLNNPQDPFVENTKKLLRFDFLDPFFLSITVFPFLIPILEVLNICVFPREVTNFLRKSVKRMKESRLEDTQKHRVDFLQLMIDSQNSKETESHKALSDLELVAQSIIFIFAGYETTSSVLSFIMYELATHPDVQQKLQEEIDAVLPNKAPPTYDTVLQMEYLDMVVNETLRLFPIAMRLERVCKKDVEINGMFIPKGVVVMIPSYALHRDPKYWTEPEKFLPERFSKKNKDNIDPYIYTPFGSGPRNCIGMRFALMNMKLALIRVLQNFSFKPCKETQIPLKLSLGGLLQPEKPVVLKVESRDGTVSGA

[1] = molecular target: FAD-linked sulfhydryl oxidase ALR (Homo sapiens, UniProt P55789); test: inhibitors of human ALR sulfhydryl oxidase, dose response, biochemical, H2O2 detection, luminescence, cherry-pick (AID 493248)
FAD-linked sulfhydryl oxidase ALR, sequence (P55789 whole entry): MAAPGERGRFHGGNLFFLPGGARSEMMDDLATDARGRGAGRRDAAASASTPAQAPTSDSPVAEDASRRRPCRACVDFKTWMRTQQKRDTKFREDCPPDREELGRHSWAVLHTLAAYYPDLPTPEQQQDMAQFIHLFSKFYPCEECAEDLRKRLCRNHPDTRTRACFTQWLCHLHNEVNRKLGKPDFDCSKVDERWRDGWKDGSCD

[2] = inhibitors of firefly luciferase expression or activity, dose response, H4 neuroglioma cells, luminescence (AID 1990); format: functional, cell-based
[3] = Luminescence Cell-Based Dose Response HTS to Identify Inhibitors of 5'UTR Stem-Loop Driven Prion Protein mRNA Translation in H4 Neuroglioblastoma Cells. [Related pubchem assays: 1827 (Project Summary), 1813 (Primary HTS)]; format: functional
[4] = inhibitors of SNCA 5'UTR-driven reporter translation, confirmation, H4 neuroglioma cells, luminescence (AID 1988); format: functional, cell-based
[5] = Shn3 3'UTR reporter inhibitors, dose response, cell-based, Clone20 osteoblasts, firefly luciferase, cherry-picked (AID 624132); format: functional;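 note: firefly luciferase luminescence from reporter carrying the Shn3 3'UTR in osteoblasts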
[6] = control 3'UTR Renilla luciferase suppression, dose response, counter-screen for Shn3 inhibitor project, cell-based, Clone20-Shn3RL, cherry-picked (AID 624133); format: functional
[7] = molecular target: T2, Rac GTPase-activating protein 1 (Homo sapiens, UniProt Q9H0H5); test: MgcRacGAP GTPase-activating activity inhibitors, confirmation, biochemical, ADP Hunter fluorescence, primary and confirmatory (AID 624330); format: functional
T2 sequence (Q9H0H5 whole entry): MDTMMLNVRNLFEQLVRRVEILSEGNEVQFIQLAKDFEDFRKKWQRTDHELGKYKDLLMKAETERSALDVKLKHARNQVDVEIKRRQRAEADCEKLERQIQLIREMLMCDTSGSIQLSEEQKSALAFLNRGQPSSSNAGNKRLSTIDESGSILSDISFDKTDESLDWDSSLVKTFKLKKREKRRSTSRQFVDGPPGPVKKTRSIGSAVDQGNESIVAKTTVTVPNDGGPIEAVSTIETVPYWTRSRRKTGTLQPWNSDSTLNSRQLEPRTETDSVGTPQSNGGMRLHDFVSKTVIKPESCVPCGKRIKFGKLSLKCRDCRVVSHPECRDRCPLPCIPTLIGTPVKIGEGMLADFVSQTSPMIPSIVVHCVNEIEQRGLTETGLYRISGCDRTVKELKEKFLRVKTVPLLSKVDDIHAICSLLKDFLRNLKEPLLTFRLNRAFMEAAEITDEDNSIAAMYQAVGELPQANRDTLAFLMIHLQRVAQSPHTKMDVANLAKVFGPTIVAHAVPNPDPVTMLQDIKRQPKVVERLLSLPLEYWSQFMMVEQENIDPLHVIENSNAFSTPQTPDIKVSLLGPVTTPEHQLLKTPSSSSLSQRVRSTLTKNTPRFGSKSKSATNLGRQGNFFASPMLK

Cytochrome P450 2C19 = Cytochrome P450 2C19 (Homo sapiens, UniProt P33261); test: Cytochrome panel assay with activity outcomes. Panel member name: p450-cyp2c19 Compounds with AC50 equal or less than 10 uM are considered active; format: functional; conditions: read-out: AC50
Cytochrome P450 2C19, sequence (P33261 whole entry): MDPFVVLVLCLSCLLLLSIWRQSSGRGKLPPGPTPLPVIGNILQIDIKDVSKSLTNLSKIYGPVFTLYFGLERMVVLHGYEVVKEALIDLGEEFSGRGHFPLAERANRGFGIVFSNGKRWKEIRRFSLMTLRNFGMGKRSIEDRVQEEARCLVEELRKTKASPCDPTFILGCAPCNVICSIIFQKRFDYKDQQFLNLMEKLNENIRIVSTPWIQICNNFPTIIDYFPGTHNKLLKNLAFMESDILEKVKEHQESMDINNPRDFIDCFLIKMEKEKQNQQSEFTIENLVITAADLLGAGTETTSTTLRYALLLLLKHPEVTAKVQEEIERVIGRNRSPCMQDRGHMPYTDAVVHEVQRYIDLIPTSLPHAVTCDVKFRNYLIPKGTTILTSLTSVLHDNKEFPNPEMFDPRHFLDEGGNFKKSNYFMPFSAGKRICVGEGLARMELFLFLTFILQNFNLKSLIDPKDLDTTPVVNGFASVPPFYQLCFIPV

[8] = inhibitors of intracellular T. cruzi replication, confirmation, NIH3T3 host cells, beta-gal luminescence (AID 2044); format: functional, cell-based;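 note: intracellular parasites grown in NIH/3T3 mouse fibroblasts as host cells; luminescent beta-galactosidase reporter signal from transgenic T. cruzi replicating inside host cells; inhibitors lower the luminescence signal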
[9] = cytotoxicity toward NIH3T3 fibroblasts, dose response, counter-screen, cell-based, ATP luminescence, mouse fibroblasts (AID 2010); format: functional;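 note: cells exposed to compound for about 90 hours before reading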

Cytochrome P450 2D6, sequence (P10635 whole entry): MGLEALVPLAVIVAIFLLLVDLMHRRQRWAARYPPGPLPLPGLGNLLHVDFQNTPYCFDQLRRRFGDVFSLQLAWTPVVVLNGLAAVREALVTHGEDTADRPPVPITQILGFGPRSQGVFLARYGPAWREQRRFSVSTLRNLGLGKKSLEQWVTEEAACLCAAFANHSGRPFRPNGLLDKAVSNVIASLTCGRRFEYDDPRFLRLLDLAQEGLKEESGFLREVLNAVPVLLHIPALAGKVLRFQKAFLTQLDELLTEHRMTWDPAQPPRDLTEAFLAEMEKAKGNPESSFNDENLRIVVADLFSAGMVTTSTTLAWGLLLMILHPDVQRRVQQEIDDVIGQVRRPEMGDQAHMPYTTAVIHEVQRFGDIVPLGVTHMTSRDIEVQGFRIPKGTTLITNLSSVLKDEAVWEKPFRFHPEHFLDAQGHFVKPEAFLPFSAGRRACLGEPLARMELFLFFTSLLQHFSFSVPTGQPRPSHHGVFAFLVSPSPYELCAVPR

Q: Which results are given for COc1ccc(Oc2nccc(-c3ccc(F)cc3)c2C#N)cc1?
A: AC50 (Cytochrome P450 2D6): 0.00562 µM (inconclusive); AC50 (Cytochrome P450 1A2): 5.01 µM (inconclusive); AC50 (Cytochrome P450 3A4): 12.6 µM (inconclusive)

Q: With Cc1cccc(C(=O)Nc2nnc(S(=O)(=O)N(C)Cc3ccco3)s2)c1 as the molecule, how does the AC50 [1] read?
A: 9.45 µM (active)

Q: Which AC50 [1] does the source give for CN1Cc2cc(C(=O)c3ccccc3O)cnc2NC1=O here?
A: 6.59 µM (active)

Q: What does the source list for CCCCCn1c(SCCCC)nc2c1c(=O)[nH]c(=O)n2C?
A: EC50 [2]: 17.1 µM (active); EC50 [3]: > 120 µM (not active); EC50 [4]: > 60 µM (not active)

Q: Which EC50 [2] does the source give for CCOc1ccccc1NC(=O)CCn1cccc1 here?
A: > 120 µM (not active)

Q: And the EC50 [3]?
A: > 120 µM (not active)

Q: And the EC50 [4]?
A: > 120 µM (not active)

Q: For COC(=O)[C@@]1(Cc2ccc(OC)cc2)[C@H]2c3cc(C(=O)N(C)C)n(Cc4ccc(C)o4)c3C[C@H]2CN1C(=O)c1ccccc1, which AC50 (Cytochrome P450 2D6) is on record?
A: 39.8 µM (inconclusive)

Q: With COC(=O)Cc1csc(N/C=C2/C(=O)N(c3cccc(C(F)(F)F)c3)C(=O)c3ccccc32)n1 as the molecule, how does the EC50 [2] read?
A: > 120 µM (not active)

Q: What about the EC50 [3] of the same molecule?
A: > 120 µM (not active)

Q: And the EC50 [4]?
A: 11.3 µM (active)

Q: For Sc1nccc(-c2cccs2)n1, which AC50 [1] is on record?
A: 0.664 µM (active)

Q: For O=C(Nc1cc(F)ccc1F)N1CCN(c2ccnc3cc(Cl)ccc23)CC1, which AC50 [5] is on record?
A: 22.8 µM (active)

Q: What about the AC50 [6] of the same molecule?
A: 10.2 µM (active)

Q: With CCN(CC)c1ccc(NC(=O)C2=CC=CN3CCS(=O)(=O)N=C23)cc1 as the molecule, how does the AC50 [1] read?
A: 0.295 µM (active)

Q: And the IC50 [7]?
A: 67 µM (active)

Q: What does the source list for Cn1cccc1C(=O)N1CCC2(CCCN(C(c3ccccc3)c3ccccc3)C2)CC1?
A: AC50 (Cytochrome P450 2C19): 39.8 µM (inconclusive); AC50 (Cytochrome P450 2D6): 10 µM (inconclusive); AC50 (Cytochrome P450 3A4): 6.31 µM (inconclusive)

Q: Which results are given for CN(C)C(=O)c1cn(N(C)c2ncc(C(F)(F)F)cc2Cl)c(=O)c2ccccc12?
A: AC50 (Cytochrome P450 2D6): 25.1 µM (inconclusive); AC50 (Cytochrome P450 3A4): 10 µM (inconclusive)

Q: With Cc1onc(-c2ccccc2)c1C(=O)NCCc1c[nH]c2ccccc12 as the molecule, how does the AC50 (Cytochrome P450 2D6) read?
A: 12.6 µM (inconclusive)

Q: For COc1cc(C(=O)OCC(=O)NC2CCCCCC2)ccc1OCC(C)C, which AC50 [6] is on record?
A: 35.9 µM (active)

Q: With Cc1[nH]n(C(N)=S)c(=O)c1/N=N/c1ccc(Cl)cc1Cl as the molecule, how does the AC50 [1] read?
A: 0.674 µM (active)

Q: With Cc1c(Br)c(O)c(Br)c(O)c1/C=N/n1c(S)nnc1-c1ccccc1 as the molecule, how does the AC50 [1] read?
A: 4.15 µM (active)

Q: Which AC50 [1] does the source give for CN1CCN(/N=C/c2ccc(N(C)c3ccccc3)cc2)CC1 here?
A: 1.9 µM (active)

Q: With COc1cc2c(cc1OC)C(c1ccc(Br)cc1)NCC2 (centres undefined) as the molecule, how does the EC50 [2] read?
A: > 120 µM (not active)

Q: And the EC50 [3]?
A: > 120 µM (not active)

Q: And the EC50 [4]?
A: > 120 µM (not active)

Q: What about the EC50 [8] of the same molecule?
A: > 60 µM (not active)

Q: What about the EC50 [9] of the same molecule?
A: > 60 µM (not active)

Q: Which EC50 [2] does the source give for CC(C)n1cc(CN2CCCC(C(=O)Nc3cccc(-c4cc5ccccc5[nH]4)c3)C2)cn1 (centres undefined) here?
A: 14.5 µM (active)

Q: What about the EC50 [3] of the same molecule?
A: > 120 µM (not active)

Q: And the EC50 [4]?
A: 30.6 µM (active)

Q: With CNC(C)(C)Cc1ccccc1 [MEPHENTERMINE] as the molecule, how does the AC50 (Cytochrome P450 2D6) read?
A: 10 µM (inconclusive)
